Experimental data from ChEMBL document CHEMBL1201862, “PubChem BioAssay data set” (2004).
Active and inactive are the calls of the source.

Assays:
[1] = biological target: T1, Zinc finger protein mex-5 (Caenorhabditis elegans, UniProt Q9XUB2); assay: MEX-5/TCR-2 RNA interaction inhibitors, dose response, biochemical, C. elegans, fluorescence polarization (AID 1960)
T1 sequence (Q9XUB2 whole entry): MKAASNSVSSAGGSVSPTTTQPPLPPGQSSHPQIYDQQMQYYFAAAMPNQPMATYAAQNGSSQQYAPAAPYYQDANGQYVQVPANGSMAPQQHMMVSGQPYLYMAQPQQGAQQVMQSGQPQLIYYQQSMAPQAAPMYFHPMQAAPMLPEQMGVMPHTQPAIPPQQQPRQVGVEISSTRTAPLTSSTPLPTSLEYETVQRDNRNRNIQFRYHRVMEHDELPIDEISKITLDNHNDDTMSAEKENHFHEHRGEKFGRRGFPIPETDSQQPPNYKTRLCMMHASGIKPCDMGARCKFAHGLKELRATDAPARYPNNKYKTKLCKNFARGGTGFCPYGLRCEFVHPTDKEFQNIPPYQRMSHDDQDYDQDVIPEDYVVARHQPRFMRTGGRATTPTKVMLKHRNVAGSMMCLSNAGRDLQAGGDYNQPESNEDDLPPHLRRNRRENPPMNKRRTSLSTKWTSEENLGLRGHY

[2] = biological target: Female germline-specific tumor suppressor gld-1 (Caenorhabditis elegans, UniProt Q17339); assay: inhibitors of GLD-1 binding to TGE RNA, dose response, biochemical, fluorescence polarization, C. elegans (AID 2802);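 also: fluorescence polarization of labeled TGE RNA bound by purified gld-1 protein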
[3] = biological target: Protein Rev (Human immunodeficiency virus type 1 group M subtype B (isolate HXB2)(HIV-1), UniProt P04618); assay: inhibitors of Rev binding to RRE RNA, dose response, biochemical, fluorescence polarization, HIV-1 (AID 434976); set-up: species or system Human immunodeficiency virus 1
[4] = biological target: Induced myeloid leukemia cell differentiation protein Mcl-1 (Homo sapiens, UniProt Q07820); type: functional
[5] = biological target: T2, RNA-binding protein pos-1 (Caenorhabditis elegans, UniProt G5EF15); assay: inhibitors of POS-1/mex-3 RNA binding, dose response, biochemical, fluorescence polarization (AID 1964);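 also: purified POS-1 fused to maltose binding protein made in E. coli; potency of compounds blocking POS-1 binding to fluorescent RNA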
T2 sequence (G5EF15 whole entry): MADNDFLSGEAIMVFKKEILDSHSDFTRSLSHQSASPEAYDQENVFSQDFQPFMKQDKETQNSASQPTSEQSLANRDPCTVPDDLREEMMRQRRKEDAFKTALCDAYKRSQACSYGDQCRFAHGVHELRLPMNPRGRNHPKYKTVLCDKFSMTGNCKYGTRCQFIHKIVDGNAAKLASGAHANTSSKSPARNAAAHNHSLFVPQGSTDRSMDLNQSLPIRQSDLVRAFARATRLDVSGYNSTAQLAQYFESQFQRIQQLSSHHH

[6] = biological target: NACHT, LRR and PYD domains-containing protein 3 (Homo sapiens, UniProt Q96P20); assay: NALP3 inhibitors in yeast, dose response, luminescent (AID 488799); type: functional
[7] = system: H4; assay: Luminescence Cell-Based Dose Response HTS to Identify Activators of 5'UTR Stem-Loop Driven Prion Protein mRNA Translation in H4 Neuroglioblastoma Cells. [Related pubchem assays: 1829 (Project Summary), 1814 (Primary HTS)]; type: functional; conditions: Homo sapiens
[8] = biological target: T3, Sentrin-specific protease 8 (Homo sapiens, UniProt Q96LD8); type: functional;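 also: luminescence read-out of SENP8 inhibition, dose-response confirmation following an ultra-high-throughput screen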
T3 sequence (Q96LD8 whole entry): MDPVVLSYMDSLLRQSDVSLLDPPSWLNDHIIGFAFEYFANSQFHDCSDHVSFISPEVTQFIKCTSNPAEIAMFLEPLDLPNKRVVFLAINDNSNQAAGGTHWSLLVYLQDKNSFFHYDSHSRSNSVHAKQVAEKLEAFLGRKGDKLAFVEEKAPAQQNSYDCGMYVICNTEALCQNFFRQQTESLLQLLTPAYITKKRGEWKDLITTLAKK

[9] = biological target: T4, Caspase-3 (Homo sapiens, UniProt P42574); type: functional;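 also: Dose-response selectivity test against caspase-3 for candidate inhibitors of sentrin-specific proteases (SENPs)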
T4 sequence (P42574 whole entry): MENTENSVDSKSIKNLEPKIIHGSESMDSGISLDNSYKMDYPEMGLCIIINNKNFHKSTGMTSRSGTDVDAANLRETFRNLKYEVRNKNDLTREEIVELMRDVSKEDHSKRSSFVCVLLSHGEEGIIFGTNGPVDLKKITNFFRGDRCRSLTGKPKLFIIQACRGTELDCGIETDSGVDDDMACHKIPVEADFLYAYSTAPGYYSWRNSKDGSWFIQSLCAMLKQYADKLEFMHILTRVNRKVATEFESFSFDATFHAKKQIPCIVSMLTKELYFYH

[10] = biological target: T5, Sentrin-specific protease 6 (Homo sapiens, UniProt Q9GZR1); type: functional;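 also: Luminescence-based dose-response confirmatory assay of SENP6 inhibition, following up an ultra-high-throughput screen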
T5 sequence (Q9GZR1 whole entry): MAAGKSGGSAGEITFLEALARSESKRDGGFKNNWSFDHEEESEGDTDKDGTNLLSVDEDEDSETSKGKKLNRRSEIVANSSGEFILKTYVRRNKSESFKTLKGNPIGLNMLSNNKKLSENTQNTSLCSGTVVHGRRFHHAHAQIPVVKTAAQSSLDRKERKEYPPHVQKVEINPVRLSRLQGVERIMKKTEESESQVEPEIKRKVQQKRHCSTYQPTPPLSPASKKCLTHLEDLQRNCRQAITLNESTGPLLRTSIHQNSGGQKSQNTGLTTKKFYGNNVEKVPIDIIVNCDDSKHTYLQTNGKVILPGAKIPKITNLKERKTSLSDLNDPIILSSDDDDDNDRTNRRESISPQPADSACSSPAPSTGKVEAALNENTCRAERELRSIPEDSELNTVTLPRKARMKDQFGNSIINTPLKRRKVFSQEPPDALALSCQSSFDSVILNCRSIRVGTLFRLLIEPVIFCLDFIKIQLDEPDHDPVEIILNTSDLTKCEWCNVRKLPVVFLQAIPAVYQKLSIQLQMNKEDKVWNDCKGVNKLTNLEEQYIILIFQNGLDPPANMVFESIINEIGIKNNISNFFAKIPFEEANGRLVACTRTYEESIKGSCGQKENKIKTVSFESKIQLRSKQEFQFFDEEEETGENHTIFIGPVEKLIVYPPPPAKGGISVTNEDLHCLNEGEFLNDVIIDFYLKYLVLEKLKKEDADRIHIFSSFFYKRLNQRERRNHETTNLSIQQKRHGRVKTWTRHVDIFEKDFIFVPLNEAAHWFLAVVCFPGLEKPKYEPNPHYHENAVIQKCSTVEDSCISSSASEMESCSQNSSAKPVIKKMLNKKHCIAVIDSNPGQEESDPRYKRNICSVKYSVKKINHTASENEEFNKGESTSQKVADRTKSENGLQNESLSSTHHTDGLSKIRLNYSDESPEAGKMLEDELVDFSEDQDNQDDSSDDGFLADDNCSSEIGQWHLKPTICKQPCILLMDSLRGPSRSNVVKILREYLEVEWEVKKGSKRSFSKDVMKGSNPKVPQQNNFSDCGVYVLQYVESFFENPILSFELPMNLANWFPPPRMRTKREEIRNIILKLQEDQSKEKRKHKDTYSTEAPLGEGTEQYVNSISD

[11] = biological target: T6, Sentrin-specific protease 7 (Homo sapiens, UniProt Q9BQF6); type: functional;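 also: Luminescence-based dose-response confirmation of ultra-high-throughput screening hits, measuring inhibition of SENP7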
T6 sequence (Q9BQF6 whole entry): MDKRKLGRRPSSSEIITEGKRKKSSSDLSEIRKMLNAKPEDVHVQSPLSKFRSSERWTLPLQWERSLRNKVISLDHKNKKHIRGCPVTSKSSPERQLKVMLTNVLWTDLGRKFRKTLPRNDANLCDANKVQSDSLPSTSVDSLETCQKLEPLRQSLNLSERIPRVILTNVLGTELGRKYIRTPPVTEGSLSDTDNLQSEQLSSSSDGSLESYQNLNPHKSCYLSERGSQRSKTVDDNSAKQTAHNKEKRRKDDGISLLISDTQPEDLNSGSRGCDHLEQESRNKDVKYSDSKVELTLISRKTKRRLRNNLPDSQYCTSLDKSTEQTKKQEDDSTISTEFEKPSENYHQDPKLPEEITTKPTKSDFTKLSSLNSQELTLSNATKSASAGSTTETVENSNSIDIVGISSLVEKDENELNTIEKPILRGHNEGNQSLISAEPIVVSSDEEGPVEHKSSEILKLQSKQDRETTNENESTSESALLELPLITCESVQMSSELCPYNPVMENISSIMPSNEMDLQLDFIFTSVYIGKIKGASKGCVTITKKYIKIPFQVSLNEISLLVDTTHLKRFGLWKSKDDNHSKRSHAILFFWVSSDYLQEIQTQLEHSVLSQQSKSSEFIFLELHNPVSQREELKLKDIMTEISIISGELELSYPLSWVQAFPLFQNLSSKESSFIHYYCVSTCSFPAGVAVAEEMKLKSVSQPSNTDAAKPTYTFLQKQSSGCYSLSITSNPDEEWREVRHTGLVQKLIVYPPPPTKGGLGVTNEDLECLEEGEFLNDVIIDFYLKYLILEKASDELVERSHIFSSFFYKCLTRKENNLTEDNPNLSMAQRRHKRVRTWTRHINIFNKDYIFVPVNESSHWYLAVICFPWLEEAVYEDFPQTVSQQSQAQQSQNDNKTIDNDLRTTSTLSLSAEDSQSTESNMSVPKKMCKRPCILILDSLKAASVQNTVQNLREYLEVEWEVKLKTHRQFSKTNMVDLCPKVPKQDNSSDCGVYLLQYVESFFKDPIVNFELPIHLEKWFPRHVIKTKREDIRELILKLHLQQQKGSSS

[12] = Luminescence Cell-Based Dose Response HTS to Identify Activators of Luciferase Translation or Activity in H4 […] Cells. [Related pubchem assays: 1829 (Project Summary), 1814 (Primary HTS)]; type: functional
[13] = ZM109 Env clade C HIV-1 fusion inhibitors, dose response, HeLa effector, CEM target cells, luciferase, cherry-pick (AID 652058); type: functional, cell-based
[14] = off-target signal loss in HeLa-CEM21 co-culture – HeLa F-luc CTL cells, cherry-picked, counter-screen for HIV-1 Env fusion inhibitor project, dose response (AID 652040); type: functional, cell-based;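 also: potency for signal decrease marking cytotoxic or nonspecific inhibition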
[15] = inhibitors of HIV Env-driven cell fusion, dose response, cherry-pick (AID 652057); type: functional, cell-based
[16] = inhibitors of clade B AD8 Env fusion, dose response, cell-based, cherry-pick (AID 652062); type: functional;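 also: luciferase signal from cell-cell fusion driven by HIV-1 clade B AD8 Env; potency is for inhibitors of fusion seen as a drop in luminescence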
[17] = biological target: Nonstructural protein 1 (Influenza A virus, UniProt Q194T2); type: functional, Influenza A virus (A/California/07/2009(H1N1))
[18] = cytotoxicity in HEK-293T cells, dose response, cytotoxicity control for TCR NF-kB inhibitor project, luminescence, T-cell screen hits (AID 489026); type: functional, cell-based;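 also: cells exposed to compound about 14 hours before the viability readout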
[19] = CEM21 lymphoblast cell cytotoxicity, dose response, cytotoxicity control for viral fusion inhibitor project, CellTiter-Glo luminescence, cherry-picked (AID 652042); type: functional, cell-based;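 also: potency for signal decrease meaning cytotoxicity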
[20] = biological target: Large T antigen (Simian virus 40, UniProt P03070); type: functional, Betapolyomavirus macacae;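 also: Confirmatory-stage PubChem screen for compounds that inhibit SV40 T antigen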
[21] = biological target: T7, Voltage-gated N-type calcium channel alpha-1B subunit/Amyloid beta A4 precursor protein-binding family A member 1 (Homo sapiens, UniProt Q00975+Q02410); type: protein assay
[22] = biological target: T7, Voltage-gated N-type calcium channel alpha-1B subunit/Amyloid beta A4 precursor protein-binding family A member 1; type: protein assay; remark: listed apart in the source
[23] = biological target: Genome polyprotein (dengue virus type 2, UniProt P29990); assay: Dengue-2 NS5 methyltransferase inhibitors, primary screen, biochemical, confirmation dose response (AID 588689); type: functional
[24] = biological target: T8, Carboxy-terminal domain RNA polymerase II polypeptide A small phosphatase 1 (Homo sapiens, UniProt Q9GZU7); assay: inhibitors of CTDSP1, concentration-response testing, biochemical assay, absorbance-based, actives from ultra-high-throughput screening (AID 540297); type: functional
T8 sequence (Q9GZU7 whole entry): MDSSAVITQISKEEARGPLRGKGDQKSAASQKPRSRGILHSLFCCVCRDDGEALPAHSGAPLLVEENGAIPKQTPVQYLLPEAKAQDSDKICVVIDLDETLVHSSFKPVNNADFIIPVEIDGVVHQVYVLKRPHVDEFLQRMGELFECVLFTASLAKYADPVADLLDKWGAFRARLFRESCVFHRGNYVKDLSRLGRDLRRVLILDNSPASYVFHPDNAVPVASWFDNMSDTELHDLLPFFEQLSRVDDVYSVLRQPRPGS

[25] = biological target: T7, Voltage-gated N-type calcium channel alpha-1B subunit/Amyloid beta A4 precursor protein-binding family A member 1; assay: disruptors of Mint-PDZ/N-type channel peptide interaction – biochemical, HTRF, SAR follow-up (AID 2489); type: functional
[26] = biological target: DNA dC->dU-editing enzyme APOBEC-3G (Homo sapiens, UniProt Q9HC16); assay: Dose Response confirmation of small molecule APOBEC3G DNA Deaminase Inhibitors via a fluorescence-based single-stranded DNA deaminase assay. [Related pubchem assays (depositor defined):AID493012, AID493028]; type: functional
[27] = biological target: DNA dC->dU-editing enzyme APOBEC-3A (Homo sapiens, UniProt P31941); assay: APOBEC3A DNA deaminase inhibitors, dose response, biochemical (AID 504722); type: functional

T7 sequence (Q00975 whole entry): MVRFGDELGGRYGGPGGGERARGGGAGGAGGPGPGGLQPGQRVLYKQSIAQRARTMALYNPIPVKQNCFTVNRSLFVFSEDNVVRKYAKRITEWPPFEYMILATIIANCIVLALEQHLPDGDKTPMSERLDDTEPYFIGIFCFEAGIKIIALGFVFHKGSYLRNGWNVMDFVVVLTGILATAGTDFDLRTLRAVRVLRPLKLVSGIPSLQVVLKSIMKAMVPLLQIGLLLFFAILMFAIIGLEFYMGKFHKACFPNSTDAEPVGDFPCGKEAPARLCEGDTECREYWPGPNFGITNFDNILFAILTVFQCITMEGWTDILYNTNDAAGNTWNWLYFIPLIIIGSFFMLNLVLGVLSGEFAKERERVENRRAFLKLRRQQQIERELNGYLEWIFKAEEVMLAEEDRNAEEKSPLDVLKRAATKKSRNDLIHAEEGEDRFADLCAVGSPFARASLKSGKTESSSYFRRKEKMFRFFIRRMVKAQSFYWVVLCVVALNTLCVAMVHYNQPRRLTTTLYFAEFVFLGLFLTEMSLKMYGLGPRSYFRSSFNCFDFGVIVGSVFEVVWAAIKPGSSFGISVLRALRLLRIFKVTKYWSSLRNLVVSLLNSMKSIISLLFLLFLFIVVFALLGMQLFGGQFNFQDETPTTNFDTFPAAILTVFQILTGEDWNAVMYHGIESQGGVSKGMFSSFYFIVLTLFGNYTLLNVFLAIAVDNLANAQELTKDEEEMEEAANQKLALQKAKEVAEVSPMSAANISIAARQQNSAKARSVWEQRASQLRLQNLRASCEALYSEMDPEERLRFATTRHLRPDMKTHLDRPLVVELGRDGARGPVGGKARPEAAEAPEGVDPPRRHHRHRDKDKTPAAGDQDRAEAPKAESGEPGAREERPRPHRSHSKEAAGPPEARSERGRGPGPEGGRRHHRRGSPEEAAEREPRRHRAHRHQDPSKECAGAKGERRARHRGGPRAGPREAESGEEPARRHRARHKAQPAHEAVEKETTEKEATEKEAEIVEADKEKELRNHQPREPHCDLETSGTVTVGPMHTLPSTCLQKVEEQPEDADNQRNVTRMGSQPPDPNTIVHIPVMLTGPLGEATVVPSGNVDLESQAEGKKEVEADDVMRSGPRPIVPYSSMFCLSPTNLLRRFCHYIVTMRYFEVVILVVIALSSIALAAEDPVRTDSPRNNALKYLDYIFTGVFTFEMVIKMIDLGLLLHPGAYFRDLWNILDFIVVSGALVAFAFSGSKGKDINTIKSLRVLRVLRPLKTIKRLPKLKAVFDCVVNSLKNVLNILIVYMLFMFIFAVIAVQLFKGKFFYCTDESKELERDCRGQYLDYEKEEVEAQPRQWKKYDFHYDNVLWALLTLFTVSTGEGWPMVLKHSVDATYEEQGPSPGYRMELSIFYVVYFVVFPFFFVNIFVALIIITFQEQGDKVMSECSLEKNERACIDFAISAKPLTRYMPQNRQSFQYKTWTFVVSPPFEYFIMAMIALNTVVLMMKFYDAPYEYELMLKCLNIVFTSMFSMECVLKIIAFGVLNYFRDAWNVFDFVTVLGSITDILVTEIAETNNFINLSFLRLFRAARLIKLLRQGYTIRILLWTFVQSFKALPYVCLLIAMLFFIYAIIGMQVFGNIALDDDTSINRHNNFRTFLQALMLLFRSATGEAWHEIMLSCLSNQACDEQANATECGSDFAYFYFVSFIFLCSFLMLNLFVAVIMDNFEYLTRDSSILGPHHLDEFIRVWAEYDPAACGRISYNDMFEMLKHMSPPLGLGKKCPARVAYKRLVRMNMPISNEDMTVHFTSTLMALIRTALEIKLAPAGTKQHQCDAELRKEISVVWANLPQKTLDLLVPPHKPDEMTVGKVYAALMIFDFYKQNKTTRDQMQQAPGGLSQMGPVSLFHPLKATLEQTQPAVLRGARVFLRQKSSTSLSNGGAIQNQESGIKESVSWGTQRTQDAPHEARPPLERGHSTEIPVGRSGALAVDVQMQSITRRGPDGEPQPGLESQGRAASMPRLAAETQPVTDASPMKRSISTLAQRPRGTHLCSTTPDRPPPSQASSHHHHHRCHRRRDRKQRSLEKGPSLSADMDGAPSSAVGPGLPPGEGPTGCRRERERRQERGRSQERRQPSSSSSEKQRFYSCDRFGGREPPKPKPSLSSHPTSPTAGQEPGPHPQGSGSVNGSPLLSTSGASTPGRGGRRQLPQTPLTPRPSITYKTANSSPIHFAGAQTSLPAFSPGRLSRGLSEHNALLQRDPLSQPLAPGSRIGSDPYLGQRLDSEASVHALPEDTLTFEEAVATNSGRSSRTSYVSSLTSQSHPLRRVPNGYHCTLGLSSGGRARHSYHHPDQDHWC
T7 sequence (Q02410 whole entry): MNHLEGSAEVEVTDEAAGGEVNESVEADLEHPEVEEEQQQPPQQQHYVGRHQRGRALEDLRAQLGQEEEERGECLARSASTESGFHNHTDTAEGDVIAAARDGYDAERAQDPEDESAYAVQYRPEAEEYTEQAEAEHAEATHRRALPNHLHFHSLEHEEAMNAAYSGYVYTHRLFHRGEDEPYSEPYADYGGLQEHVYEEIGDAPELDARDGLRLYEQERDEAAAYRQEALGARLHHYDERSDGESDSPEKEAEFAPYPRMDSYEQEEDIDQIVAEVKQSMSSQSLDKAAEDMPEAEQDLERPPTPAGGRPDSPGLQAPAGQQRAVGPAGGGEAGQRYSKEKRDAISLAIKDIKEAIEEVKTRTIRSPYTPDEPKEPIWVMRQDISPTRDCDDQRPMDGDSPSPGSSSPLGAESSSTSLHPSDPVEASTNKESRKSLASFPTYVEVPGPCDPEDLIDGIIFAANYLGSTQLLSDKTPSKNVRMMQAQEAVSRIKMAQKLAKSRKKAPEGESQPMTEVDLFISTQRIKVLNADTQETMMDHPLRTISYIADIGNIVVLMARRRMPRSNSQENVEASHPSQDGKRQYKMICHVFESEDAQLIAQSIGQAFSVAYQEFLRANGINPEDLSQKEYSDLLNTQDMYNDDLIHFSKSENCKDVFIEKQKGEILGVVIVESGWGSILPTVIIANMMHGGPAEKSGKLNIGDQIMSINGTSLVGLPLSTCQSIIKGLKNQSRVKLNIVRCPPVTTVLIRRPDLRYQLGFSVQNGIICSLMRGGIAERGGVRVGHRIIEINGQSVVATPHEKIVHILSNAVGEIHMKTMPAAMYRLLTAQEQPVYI
NACHT, LRR and PYD domains-containing protein 3, sequence (Q96P20 whole entry, the tested form may be a part): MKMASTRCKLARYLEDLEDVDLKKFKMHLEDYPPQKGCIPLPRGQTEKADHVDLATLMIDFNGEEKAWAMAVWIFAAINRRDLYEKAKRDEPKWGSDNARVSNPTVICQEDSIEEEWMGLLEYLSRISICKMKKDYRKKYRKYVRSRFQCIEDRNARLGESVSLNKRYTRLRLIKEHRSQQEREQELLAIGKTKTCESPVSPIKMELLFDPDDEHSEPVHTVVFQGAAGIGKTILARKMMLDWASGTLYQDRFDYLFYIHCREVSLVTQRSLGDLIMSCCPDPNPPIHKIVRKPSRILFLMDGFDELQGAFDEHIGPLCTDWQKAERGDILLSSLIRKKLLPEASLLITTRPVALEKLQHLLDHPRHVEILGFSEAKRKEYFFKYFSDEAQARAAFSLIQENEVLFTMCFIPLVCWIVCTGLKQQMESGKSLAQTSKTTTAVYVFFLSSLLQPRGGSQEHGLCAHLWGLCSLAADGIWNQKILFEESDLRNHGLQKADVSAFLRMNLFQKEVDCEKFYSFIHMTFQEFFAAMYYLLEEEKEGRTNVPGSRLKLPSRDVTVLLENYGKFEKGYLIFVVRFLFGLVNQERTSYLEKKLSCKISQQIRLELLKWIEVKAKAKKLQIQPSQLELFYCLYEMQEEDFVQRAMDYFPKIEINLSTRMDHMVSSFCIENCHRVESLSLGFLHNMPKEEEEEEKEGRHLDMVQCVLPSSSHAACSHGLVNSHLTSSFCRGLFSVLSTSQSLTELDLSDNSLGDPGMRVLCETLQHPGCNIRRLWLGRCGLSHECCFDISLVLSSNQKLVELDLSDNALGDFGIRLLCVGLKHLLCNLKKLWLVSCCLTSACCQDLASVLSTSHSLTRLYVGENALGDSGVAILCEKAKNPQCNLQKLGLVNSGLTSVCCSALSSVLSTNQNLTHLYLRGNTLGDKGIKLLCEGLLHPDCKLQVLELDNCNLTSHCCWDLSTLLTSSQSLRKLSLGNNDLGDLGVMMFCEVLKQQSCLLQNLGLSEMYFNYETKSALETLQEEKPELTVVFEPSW
Induced myeloid leukemia cell differentiation protein Mcl-1, sequence (Q07820 whole entry, the tested form may be a part): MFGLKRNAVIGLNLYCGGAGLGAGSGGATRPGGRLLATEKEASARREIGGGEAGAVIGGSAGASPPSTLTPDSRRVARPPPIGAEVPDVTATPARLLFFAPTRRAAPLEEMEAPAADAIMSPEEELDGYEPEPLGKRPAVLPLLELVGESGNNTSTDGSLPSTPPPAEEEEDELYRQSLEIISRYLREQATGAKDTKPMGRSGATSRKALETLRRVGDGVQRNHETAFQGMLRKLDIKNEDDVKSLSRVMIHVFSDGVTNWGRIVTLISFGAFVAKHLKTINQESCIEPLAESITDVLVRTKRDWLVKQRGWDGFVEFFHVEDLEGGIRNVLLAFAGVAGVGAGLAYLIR
DNA dC->dU-editing enzyme APOBEC-3G, sequence (Q9HC16 whole entry): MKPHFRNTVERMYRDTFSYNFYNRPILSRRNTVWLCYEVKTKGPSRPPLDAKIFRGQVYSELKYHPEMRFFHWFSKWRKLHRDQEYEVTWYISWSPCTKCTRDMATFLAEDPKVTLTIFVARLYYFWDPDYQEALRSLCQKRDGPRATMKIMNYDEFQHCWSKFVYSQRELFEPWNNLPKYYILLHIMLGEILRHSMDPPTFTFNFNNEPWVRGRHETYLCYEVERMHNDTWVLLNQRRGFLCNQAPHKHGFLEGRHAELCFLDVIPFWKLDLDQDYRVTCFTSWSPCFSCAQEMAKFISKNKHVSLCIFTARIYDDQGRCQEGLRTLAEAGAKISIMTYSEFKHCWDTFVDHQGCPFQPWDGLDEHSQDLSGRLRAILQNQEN
Protein Rev, sequence (P04618 whole entry): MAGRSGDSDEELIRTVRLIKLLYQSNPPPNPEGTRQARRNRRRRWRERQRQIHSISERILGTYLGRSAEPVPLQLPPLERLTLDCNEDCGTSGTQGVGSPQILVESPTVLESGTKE

## Nc1c(O)ccc2c1C(=O)c1ccccc1C2=O
[1]
  EC50: 10.4 µM (active)
[2]
  IC50: 4.15 µM (active)
[3]
  IC50: > 75.4 µM (not active)
[4]
  IC50: 3.66 µM (not active)
[5]
  EC50: > 300 µM (not active)

## CCCC1CCC(c2ccc(OCC)cc2)=CC1=O (stereo unspecified)
[6]
  IC50: 53.9 µM (active)
[7]
  EC50: 20.7 µM (inconclusive)
[8]
  IC50: 40.2 µM (active)
[9]
  IC50: 21.3 µM (active)
[10]
  IC50: 29.6 µM (active)
[11]
  IC50: 10.1 µM (active)
[12]
  EC50: 0.126 µM (active)

## CCN(CC)c1ccc2nc3ccc(N)cc3[n+](-c3ccccc3)c2c1
[6]
  IC50: 4.79 µM (active)
[13]
  AC50: 1.28 µM (active)
[14]
  AC50: 1.41 µM (active)
[15]
  AC50: 3.78 µM (active)
[16]
  AC50: 3.84 µM (active)
[17]
  IC50: 8.47 µM (active)
[18]
  IC50: 67.7 µM (inactive)
[19]
  AC50: 3.25 µM (active)

## O=C(O)CCn1cc(C=C2C(=O)NC(=S)NC2=O)c(-c2cccc(Cl)c2)n1
[20]
  IC50: 76.3 µM (active)
[21]
  IC50: 13 µM (active)
[22]
  IC50: 30.7 µM (active)
[23]
  IC50: 10.9 µM (active)
[4]
  IC50: 2.87 µM (active)
[24]
  IC50: 10.1 µM (active)

## CC(=O)NS(=O)(=O)c1ccc(NC(=O)/C=C/c2ccc(C)o2)cc1
[21]
  IC50: 2.19 µM (active)
[22]
  IC50: 6.9 µM (active)
[25]
  IC50: > 56.8 µM (inactive)

## Cc1ccccc1/C=N/n1c(S)nnc1-c1ccccn1
[26]
  IC50: 4.13 µM (active)
[27]
  IC50: > 100 µM (inactive)
